Source: publication PMC3574217 (Journal of medicinal chemistry, 2013)

Legend:
[1] = tested on: LAD ligation model of ischemic heart failure in mice; assay: LAD ligation ischemic heart failure model, echocardiography-derived FS; format: in vivo, mouse; conditions: infusion 28 days
[2] = tested on: LAD ligation model of ischemic heart failure in mice; assay: Ex vivo isolated working heart preparation; format: in vivo, mouse; conditions: infusion 28 days
[3] = tested on: CSQ-overexpressing mice with heart failure; assay: CSQ-overexpressing mouse model of heart failure; format: in vivo
[4] = tested on: adult WT murine cardiac ventricular myocytes; assay: Contractile response; format: cell-based, mouse; conditions: vs control basal condition, P<0.05
aorta ring preparations = conditions: cited from earlier work
cardiac P2X4R = conditions: cardiomyocytes obtained from the CSQ mouse; cited from earlier work
[5] = 24 h
[6] = tested on: CSQ-overexpressing mice with heart failure; conditions: chronic administration; cited from earlier work
[7] = Stability in rat liver microsomes; conditions: 24 h, 37°C
Stability in rat plasma = conditions: 24 h, 37°C

SMILES | protection in the LAD model (increase in FS), in words [1] | protection in ex vivo working heart (+dP/dt), in words [2] | cardioprotection in CSQ model, in words ([3]; infusion) | other results
CCOP(=O)(OCC)SC[C@@]12C[C@@H]1[C@@H](n1cnc3c(N)nc(Cl)nc31)[C@H](O)[C@@H]2O [Compound 11, (1’S,2’R,3’S,4’R,5’S)-4-(6-Amino-2-chloro-purin-9-yl)-1-[O,O-diethyl S-methyl phosphorothioate]-2,3-(dihydroxyl)-bicyclo-[3.1.0]hexane] | protective | – | – | –
CC(C)OP(=O)(OC[C@@]12C[C@@H]1[C@@H](n1cnc3c(N)nc(Cl)nc31)[C@H](O)[C@@H]2O)OC(C)C [Compound 8, (1’S,2’R,3’S,4’R,5’S)-4-(6-Amino-2-chloro-9H-purin-9-yl)-1-[(diisopropylphosphate)methyl]-2,3-(dihydroxy)-bicyclo[3.1.0]hexane] | highly protective | – | – | –
CC(C)(C)OP(=O)(OC[C@@]12C[C@@H]1[C@@H](n1cnc3c(N)nc(Cl)nc31)[C@H](O)[C@@H]2O)OC(C)(C)C [Compound 9, (1’S,2’R,3’S,4’R,5’S)-4-(6-Amino-2-chloro-9H-purin-9-yl)-2,3-(dihydroxy)-1-[(t-butylphosphate)methyl]-bicyclo[3.1.0]hexane] | – | able to improve function | – | –
Nc1nc(Cl)nc2c1ncn2[C@H]1[C@H](O)[C@H](O)[C@]2(CSP(=O)(O)O)C[C@H]12 [Compound 5, (1’S,2’R,3’S,4’R,5’S)-4-(6-Amino-2-chloro-purin-9-yl)-2,3-(dihydroxy)-1-[monophosporothioate]-bicyclo-[3.1.0]hexane] | – | able to improve function | could protect | –
Nc1nc(Cl)nc2c1ncn2[C@H]1[C@H](O)[C@H](O)[C@@]2(COP(=O)(O)O)C[C@@H]12 [Compound 1, (1’S,2’R,3’S,4’R,5’S)-4-(6-amino-2-chloro-9H-purin-9-yl)-1-[phosphoryloxy-methyl]bicyclo[3.1.0]hexane-2,3-diol] | – | – | – | contraction shortening (CS) [4]: modest increase in contraction shortening; vasodilator action (aorta ring preparations): devoid of any vasodilator action; P2X-like current in cardiomyocytes (cardiac P2X4R): induced a current that is characteristic of the action of the cardiac P2X4R; stability to acidic conditions ([5]; pH 1.5, 37°C, data not shown): stable; cardioprotection in CSQ mouse model [6]: rescued the hypertrophic and heart failure phenotype
CCOP(=S)(OCC)SC[C@@]12C[C@@H]1[C@@H](n1cnc3c(N)nc(Cl)nc31)[C@H](O)[C@@H]2O [Compound 13, (1’S,2’R,3’S,4’R,5’S)-4-(6-Amino-2-chloro-purin-9-yl)-1-[O,O-diethyl S-methyl phosphorodithioate]-2,3-(dihydroxyl)-bicyclo-[3.1.0]hexane] | protective | – | – | –
[2H]C([2H])(OP(=O)(OCC)OCC)[C@@]12C[C@@H]1[C@@H](n1cnc3c(N)nc(Cl)nc31)[C@H](O)[C@@H]2O [Compound 10, (1’S,2’R,3’S,4’R,5’S)-4-(6-Amino-2-chloro-9H-purin-9-yl)-2,3-(dihydroxyl)-1-[(di-ethylphosphate)dideuteromethyl]bicyclo[3.1.0]hexane] | did not fully protect | – | – | –
CCOP(=O)(OCC)OC[C@@]12C[C@@H]1[C@@H](n1cnc3c(N)nc(Cl)nc31)[C@H](O)[C@@H]2O [Compound 7, (1’S,2’R,3’S,4’R,5’S)-4-(6-Amino-2-chloro-9H-purin-9-yl)-1-[(diethylphosphate)methyl]-2,3-(dihydroxy)-bicyclo[3.1.0]hexane] | highly protective | able to improve function | cardioprotective activity was seen | –
[2H]C([2H])(OP(=O)(O)O)[C@@]12C[C@@H]1[C@@H](n1cnc3c(N)nc(Cl)nc31)[C@H](O)[C@@H]2O [Compound 4, (1’S,2’R,3’S,4’R,5’S)-4-(6-Amino-2-chloro-9H-purin-9-yl)-1-[phosphoryloxydideuteromethyl]-2,3-diol-bicyclo[3.1.0]hexane] | significantly protective | – | – | –
CCOP(=O)(C[C@@]12C[C@@H]1[C@@H](n1cnc3c(N)nc(Cl)nc31)[C@H](O)[C@@H]2O)OCC [Compound 14, Diethyl-(1’S,2’R,3’S,4’R,5’S)-4’-(6-amino-2-chloropurin-9-yl)-2’,3’-(hydroxy)-bicyclo[3.1.0]hexane phosphonate] | – | did not protect | inactive | stability in the presence of microsomes from rat liver [7]: unable to demonstrate any hydrolysis; stability in aqueous medium at pH 1 ([5]; 50°C): unable to demonstrate any hydrolysis; stability in aqueous medium at pH 11 ([5]; 50°C): unable to demonstrate any hydrolysis; stability in the presence of rat plasma (Stability in rat plasma): stable
Nc1nc(Cl)nc2c1ncn2[C@H]1[C@H](O)[C@H](O)[C@]2(CCP(=O)(O)O)C[C@H]12 [Compound 3, (1’S,2’R,3’S,4’R,5’S)-4’-(6-amino-2-chloropurin-9-yl)-2’,3’-(dihydroxy)-1’-(phosphonoethylene)-bicyclo[3.1.0]hexane] | – | – | – | contraction shortening (CS) [4]: modest increase in contraction shortening; cardioprotection in CSQ mouse model [6]: protective
Nc1nc(I)nc2c1ncn2[C@H]1[C@H](O)[C@H](O)[C@]2(CP(=O)(O)O)C[C@H]12 [Compound 6, (1’S,2’R,3’S,4’R,5’S)-4’-(6-Amino-2-iodoropurin-9-yl)-2’,3’-(dihydroxy)-1’-(phosphonomethylene)-bicyclo[3.1.0]hexane] | – | able to improve function | abolished protection | effect on FS in CSQ mice ([3]; infusion, compared to vehicle): did not improve FS; LV wall thickness in CSQ mice, in words ([3]; vs NS-infused CSQ mice): did not improve FS (Table S2) or prevent LV wall thinning
